Several values for one entry are separate records, joined by “and”; a condition that tells them apart may be missing. Equal values may be shown once. Where a name gives a salt, the structure may show the parent alone. Read-outs that look alike come from different tables or passages of the source.
Biological target: T1, Human IP6K1 (Homo sapiens, UniProt Q92551)
T1 construct: GST (N, cleaved yes); made in house; host or cells: C43 E. coli, pGEX-6P-2
Test: IP6K1 high-throughput screen of the Sigma LOPAC (ADP-Glo Max, single point);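 note: final compound concentration 10µM in 5% DMSO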
Format: biochemical

[1] = LOPAC single-point screen, ADP-Glo Max raw signal per well
[2] = LOPAC single-point screen, Z-score from raw signal with plate average and StDev
[3] = LOPAC single-point screen, ADP-Glo Max luminescence raw signal per well
[4] = LOPAC single-point screen, Z-score relative to plate average and StDev
[5] = Sigma LOPAC single-point screen, ADP-Glo Max raw signal per well
[6] = Sigma LOPAC single-point screen, Z-score from plate average and StDev
[7] = LOPAC single-point screen, Z-score against plate average and StDev

T1 sequence (Q92551 whole entry): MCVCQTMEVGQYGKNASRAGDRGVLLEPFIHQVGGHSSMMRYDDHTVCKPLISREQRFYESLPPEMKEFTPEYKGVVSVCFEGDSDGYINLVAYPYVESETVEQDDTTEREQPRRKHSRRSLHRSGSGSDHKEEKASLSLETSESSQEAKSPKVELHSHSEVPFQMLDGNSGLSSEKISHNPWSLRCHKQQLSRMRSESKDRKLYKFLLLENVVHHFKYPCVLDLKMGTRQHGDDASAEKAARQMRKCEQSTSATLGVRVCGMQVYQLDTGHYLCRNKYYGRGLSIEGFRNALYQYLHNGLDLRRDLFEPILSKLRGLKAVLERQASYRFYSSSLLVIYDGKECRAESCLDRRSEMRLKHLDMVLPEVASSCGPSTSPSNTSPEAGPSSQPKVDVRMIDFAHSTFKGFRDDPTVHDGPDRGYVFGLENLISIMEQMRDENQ

| Compound | Raw Signal [1] | Raw Signal [3] | Z-score [4] | further results |
| --- | --- | --- | --- | --- |
| C=CCN1CC[C@]23CCCC[C@H]2[C@H]1Cc1ccc(O)cc13 [Levallorphan tartrate] | 52542 | – | – | Z-score [2]: -0.3111 |
| Br.C=CCN1CCc2cc(O)c(O)cc2C(c2ccc(O)cc2)C1 (racemic) [(±)-SKF 38393, N-allyl-, hydrobromide] | 54138 | – | – | Z-score [2]: -0.3664 |
| N#C/C(=C\c1ccc(O)c(O)c1)C(=O)c1ccc(O)c(O)c1 [Tyrphostin AG 538] | – | 38614 | -3.382 | – |
| CC1(C)CCC=[N+]1[O-] [5,5-Dimethyl-1-pyrroline-N-oxide] | – | 51954 | -0.6525 | – |
| O=P1(N(CCCl)CCCl)NCCCO1 (stereo not shown) [Cyclophosphamide monohydrate] | – | – | – | Raw Signal: 58935; Z-score: 0.18 |
| O=[N+]([O-])c1ccc(O[C@@H]2O[C@H](CO)[C@@H](O)[C@H](O)[C@H]2F)c([N+](=O)[O-])c1 | – | 50009 | -1.048 | – |
| O=c1cc(O)cc(/C=C/c2ccc(O)c(O)c2)o1 [Hispidin] | – | 48484 | -1.357 | – |
| CC1(C(=O)O)C2CCC(O2)C1(C)C(=O)O (stereo not shown) [Cantharidic Acid] | – | – | – | Raw Signal [5]: 61779; Z-score [6]: 0.6809 |
| C[C@@](Cc1ccc(O)c(O)c1)(NN)C(=O)O [S-(-)-Carbidopa] | 55065 | – | – | Z-score [7]: -0.02072 |
| COC(=O)[C@H]1[C@H]2C[C@@H]3c4[nH]c5cc(OC)ccc5c4CCN3C[C@H]2C[C@@H](OC(=O)c2cc(OC)c(OC)c(OC)c2)[C@@H]1OC [Reserpine] | 59002 | – | – | Z-score [7]: 0.1918 |
| CC[C@@H](CO)NC(=O)[C@@H]1C=C2c3cccc4[nH]cc(c34)C[C@H]2N(C)C1 [Methylergonovine maleate] | – | – | – | Raw Signal [5]: 56663; Z-score [6]: 0.3813 |
| CN(C)[C@@H]1C(O)=C(C(N)=O)C(=O)[C@@]2(O)C(O)=C3C(=O)c4c(O)ccc(Cl)c4[C@@H](O)[C@H]3C[C@@H]12 [Demeclocycline hydrochloride] | – | 42734 | -2.525 | – |
| NNC(=O)c1ccc(O)cc1 [4-Hydroxybenzhydrazide] | – | – | – | Raw Signal [5]: 59100; Z-score [6]: 0.7987 |
| C[N+](C)(C)CCOC(=O)CBr.[Br-] [Bromoacetylcholine bromide] | – | 53767 | -0.7302 | – |
| O=c1[nH]c2ccccc2c2ccccc12 [6(5H)-Phenanthridinone] | 55315 | – | – | Z-score [2]: -0.1377 |
| CCN(CC)CC#CCOC(=O)C(O)(c1ccccc1)C1CCCCC1 (stereo not shown) [Oxybutynin Chloride] | 55631 | – | – | Z-score [7]: 0.2079 |
| c1ccc2c(CC3=NCCN3)cccc2c1 [Naphazoline hydrochloride] | 52798 | – | – | Z-score [2]: -0.2681 |
| C[C@H](CS)C(=O)N1CCC[C@H]1C(=O)O [Captopril] | 58254 | – | – | Z-score [7]: 0.06004 |
| Br.Cc1o[nH]c(=O)c1CC(N)C(=O)O (racemic) [(±)-AMPA hydrobromide] | 54656 | – | – | Z-score [2]: -0.1038 |
| CCCCCCCCCCCCCCCCOCC(COCC(F)(F)F)OP(=O)(O)OC (stereo not shown) [MJ33] | – | – | – | Raw Signal [5]: 57341; Z-score [6]: 0.4953 |
| NCC(CC(=O)O)c1ccc(Cl)cc1 (racemic) [(±)-Baclofen] | – | – | – | Raw Signal [5]: 65373; Z-score [6]: 1.3139 |

| Compound | Raw Signal [1] | Raw Signal [3] | Z-score [4] | further results |
| --- | --- | --- | --- | --- |
| Cn1cnc2c1c(=O)[nH]c(=O)n2C [Theobromine] | – | 52921 | -0.6028 | – |
| Cn1c(=O)c2[nH]c(-c3ccc(S(=O)(=O)O)cc3)nc2n(C)c1=O [8-(p-Sulfophenyl)theophylline] | 56907 | – | – | Z-score [2]: -0.1772 |
| LY-310,762 hydrochloride | 55045 | – | – | Z-score [7]: 0.1095 |
| CCCCC1(C2CCCC2)Cc2cc(OCC(=O)O)c(Cl)c(Cl)c2C1=O (stereo in doubt) [R(+)-Butylindazone] | 53463 | – | – | Z-score [2]: -0.3461 |
| CCCCCCC(C)(C)c1ccc([C@@H]2C[C@H](O)CC[C@H]2CCCO)c(O)c1 [CP55940] | 55459 | – | – | Z-score [2]: -0.4322 |
| c1ccc2c(c1)OCC(C1=NCCN1)O2 (stereo not shown) [Idazoxan hydrochloride] | – | – | – | Raw Signal [5]: 58161; Z-score [6]: 0.633 |
| COc1ccc2c(c1)c(CC(=O)O)c(C)n2C(=O)c1ccc(Cl)cc1 [Indomethacin] | 54719 | – | – | Z-score [7]: 0.05469 |
| CC(C)(C=O)Cc1cc(C(C)(C)C)c(O)c(C(C)(C)C)c1 [CGP-13501] | 59120 | – | – | Z-score [7]: 0.2126 |
| NCC(O)(CS(=O)(=O)O)c1ccc(Cl)cc1 (stereo not shown) [2-Hydroxysaclofen] | – | – | – | Raw Signal [5]: 61124; Z-score [6]: 0.5655 |
| C[N+]1(C)CCc2cc3c(cc2[C@H]1[C@@H]1OC(=O)c2c1ccc1c2OCO1)OCO3.[Br-] [(-)-Bicuculline methbromide, 1(S), 9(R)] | 56332 | – | – | Z-score [2]: -0.2785 |
| O=C1CCC(N2C(=O)c3ccccc3C2=O)C(=O)N1 (racemic) [(±)-Thalidomide] | 54848 | – | – | Z-score [2]: -0.2284 |
| CNC(=O)[C@H]1O[C@@H](n2cnc3c(NCc4cccc(I)c4)ncnc32)[C@H](O)[C@@H]1O [IB-MECA] | – | 49701 | -0.7885 | – |
| CC(C)NCC(O)COc1cccc2[nH]ccc12 (stereo not drawn) [S(-)-Pindolol] | – | 52829 and 52276 | – | – |
| CC1(C)NC(=O)N(c2ccc([N+](=O)[O-])c(C(F)(F)F)c2)C1=O [Nilutamide] | – | – | – | Raw Signal [5]: 62066; Z-score [6]: 1.289 |
| N#CCCN.N#CCCN.O=C(O)/C=C/C(=O)O [3-Aminopropionitrile fumarate] | – | 53618 | -0.7565 | – |
| Cc1nc2c(OCc3ccccc3)cccn2c1CC#N [SCH-28080] | – | 49264 | -1.199 | – |
| C=C[C@H]1C[N@@]2CC[C@H]1C[C@H]2[C@H](O)c1ccnc2ccc(OC)cc12 [Quinine sulfate] | 53765 | – | – | Z-score [2]: -0.4388 |
| CC1=C(/C=C/C(C)=C/C=C/C(C)=C/C=C/C=C(C)/C=C/C=C(C)/C=C/C2=C(C)C(=O)[C@@H](O)CC2(C)C)C(C)(C)C[C@H](O)C1=O [Astaxanthin] | 57440 | – | – | Z-score [7]: -0.08333 |
| CC1=C(C)C(=O)C(CCCCC#CCCCC#CCO)=C(C)C1=O [AA-861] | – | 50345 | -1.333 | – |
| CC(N)C(O)c1ccc(O)c(O)c1 (single isomer, unassigned; (-)) [(-)-alpha-Methylnorepinephrine] | – | 45337 | -1.996 | – |
| CNCCC=C1c2ccccc2CCc2ccccc21 [Nortriptyline hydrochloride] | 54505 | – | – | Z-score [7]: 0.01873 |

| Compound | Raw Signal [1] | Raw Signal [3] | Z-score [4] | further results |
| --- | --- | --- | --- | --- |
| CN(C)CCCN1c2ccccc2CCc2ccccc21 [Imipramine hydrochloride] | 53704 | – | – | Z-score [2]: -0.1159 |
| NC(=S)c1ccc[n+]([C@@H]2O[C@@H](COP(=O)([O-])OP(=O)(O)OC[C@H]3O[C@@H](n4cnc5c(N)ncnc54)C(OP(=O)([O-])O)[C@H]3O)C(O)C2O)c1.[Na+] (stereo partly shown) [Thio-NADP sodium] | 56703 | – | – | Z-score [7]: 0.132 |
| COc1cccc(NC(=O)/C=C/c2ccc(Cl)cc2)c1 [SB-366791] | – | 52546 | -0.6757 | – |
| CN1CCN(C2=Nc3cc(Cl)ccc3Nc3ccccc32)CC1 [Clozapine] | – | 54825 | -0.5439 | – |
| CC(=O)SCC[N+](C)(C)C.[Cl-] [Acetylthiocholine chloride] | 58613 | – | – | Z-score [7]: 0.1233 |
| CC(C)C[C@H](NP(=O)([O-])O[C@H]1O[C@H](C)[C@@H](O)[C@H](O)[C@@H]1O)C(=O)N[C@@H](Cc1c[nH]c2ccccc12)C(=O)[O-].[Na+].[Na+] [Phosphoramidon disodium] | 56521 | – | – | Z-score [7]: 0.0966 |
| Oc1ccc(C2CNCCc3c2cc(O)c(O)c3Cl)cc1 (stereo not shown) [Fenoldopam bromide] | – | – | – | Raw Signal [5]: 59808; Z-score [6]: 0.9425 |
| CN(N=O)c1cc(O)ccc1O [Dephostatin] | 55962 | – | – | Z-score [7]: 0.1615 |
| C[C@H](O)[C@H](O)[C@H]1CNc2nc(N)[nH]c(=O)c2N1.Cl | 53766 | – | – | Z-score [2]: -0.4386 |
| O=C(O)CNC(=O)C(CS)Cc1ccccc1 (racemic) [DL-Thiorphan] | 55327 | – | – | Z-score [2]: -0.1354 |
| O=c1[nH]c2cc(Cl)c(Cl)cc2[nH]c1=O [6,7-Dichloroquinoxaline-2,3-dione] | 56553 | – | – | Z-score [7]: 0.2815 |
| Br.CN=c1nc(-c2ccccc2)n(-c2ccccc2)s1 [SCH-202676 hydrobromide] | – | 51247 | -0.928 | – |
| O=C(/C=C/c1ccc(O)c(O)c1)OCCc1ccccc1 [Caffeic acid phenethyl ester] | – | 53915 | -0.7042 | – |
| Cl.N[C@@H](Cc1cnc[nH]1)C(=O)O [L-Histidine hydrochloride] | – | – | – | Raw Signal [5]: 61451; Z-score [6]: 1.276 |
| CNCC[C@H](Oc1ccc(C(F)(F)F)cc1)c1ccccc1.Cl [S-(+)-Fluoxetine hydrochloride] | – | – | – | Raw Signal [5]: 58446; Z-score [6]: 0.6659 |
| COC(=O)C1=C(C)NC(C)=C([N+](=O)[O-])C1c1ccccc1C(F)(F)F (racemic) [(±)-Bay K 8644] | – | 52853 | -0.8912 | – |
| Clc1ccc2c(c1)C(N1CCNCC1)=Nc1ccccc1O2 [Amoxapine] | – | 50961 | -1.224 | – |
| C[C@]12C=CC(=O)C=C1CC[C@@H]1C2=CC[C@]2(C)[C@@H](C(=O)CN3CCN(c4cc(N5CCCC5)nc(N5CCCC5)n4)CC3)CC[C@@H]12.O=C(O)/C=C\C(=O)O [U-74389G maleate] | – | 52844 | -0.6178 | – |
| CC(=O)OCC1=C(C(=O)O)N2C(=O)[C@@H](NC(=O)Cc3cccs3)[C@H]2SC1 [Cephalothin sodium] | 58709 | – | – | Z-score [7]: 0.1402 |
